Laboratory results reported in patent publication US10000507B2, “Furo- and thieno-pyridine carboxamide compounds useful as pim kinase inhibitors” (Incyte Corporation, priority 2013, dated 2018).

Tests used:
Format in all cases: biochemical
Pim-3 = Pim-3 (Homo sapiens (Human), UniProt Q86V86); experiment: Pim-3 kinase assay; settings: 1 mM ATP, biotin-labeled BAD peptide substrate; read-out: Pim3 IC50
Method: (§1) Pim-1 and Pim-3 kinase assays-20 μL reactions were run in white 384 well polystyrene plates dotted with 0.8 μL compound/DMSO in the assay buffer (50 mM Tris, pH 7.5, 0.01% Tween-20, 5 mM MgCl2, 0.01% BSA, 5 mM DTT), containing […] Biotin-labeled BAD peptide substrate (AnaSpec 62269), 1 mM ATP, and 2.5 pM (Pim-1, Invitrogen PV3503) or 1.25 pM (Pim-3, Millipore 14-738) enzyme for 1 h at 25° C. Reactions were stopped by addition of 10 μL STOP Buffer (150 mM Tris, pH=7.5, 150 mM NaCl, 75 mM EDTA, 0.01% Tween-20, 0.3% BSA) supplemented with Phospho-Bad (Ser112) Antibody (Cell Signaling 9291) diluted 666-fold, and Streptavidin donor beads (PerkinElmer 6760002) along with Protein-A acceptor beads (PerkinElmer 6760137) at 15 μg/mL each. Supplementation of the STOP buffer with beads and stopping the reactions were done under reduced light. Prior to the stopping reactions STOP buffer with beads was pre-incubated for 1 h in the dark at room temperature. After stopping the reactions, plates were incubated for 1 h in the dark at room temperature before reading on a PHERAstar FS plate reader (BMG Labtech) under reduced light.

Pim-1 = Pim-1 (Homo sapiens (Human), UniProt P11309); experiment: Pim-1 kinase assay; settings: 1 mM ATP, biotin-labeled BAD peptide substrate; read-out: Pim1 IC50
Pim-1, sequence (P11309 whole entry): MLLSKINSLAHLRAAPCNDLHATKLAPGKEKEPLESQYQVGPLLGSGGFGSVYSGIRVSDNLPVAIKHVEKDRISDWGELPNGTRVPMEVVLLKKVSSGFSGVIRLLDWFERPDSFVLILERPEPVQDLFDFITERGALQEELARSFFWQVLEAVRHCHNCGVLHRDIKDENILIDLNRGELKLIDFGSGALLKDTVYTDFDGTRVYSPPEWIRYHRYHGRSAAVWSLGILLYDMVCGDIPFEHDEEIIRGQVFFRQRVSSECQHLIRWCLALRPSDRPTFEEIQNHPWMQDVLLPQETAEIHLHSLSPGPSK
Method: as §1

Pim-2 = Pim-2 (Homo sapiens (Human), UniProt Q9P1W9); experiment: Pim-2 kinase assay; settings: 1 mM ATP, fluorescein-labeled CREBtide peptide substrate; read-out: Pim2 IC50
Pim-2, sequence (Q9P1W9 whole entry): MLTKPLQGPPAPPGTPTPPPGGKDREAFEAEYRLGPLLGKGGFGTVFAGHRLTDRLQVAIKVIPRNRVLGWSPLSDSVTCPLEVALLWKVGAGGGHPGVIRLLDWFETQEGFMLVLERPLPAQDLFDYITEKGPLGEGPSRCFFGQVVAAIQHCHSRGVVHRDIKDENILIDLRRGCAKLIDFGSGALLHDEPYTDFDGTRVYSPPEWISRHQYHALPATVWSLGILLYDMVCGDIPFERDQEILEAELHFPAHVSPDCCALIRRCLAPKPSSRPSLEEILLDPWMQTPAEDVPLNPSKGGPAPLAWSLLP
Method: Pim-2 kinase assay-20 μL reactions were run in white 384 well polystyrene plates dotted with 0.8 μL compound/DMSO in the assay buffer (50 mM Tris, pH 7.5, 0.01% Tween-20, 5 mM MgCl2, 0.01% BSA, 5 mM DTT), containing 0.05 μm Fluorescein-labeled CREBtide peptide substrate (Invitrogen PV3508), 1 mM ATP, and 1 nM enzyme (Invitrogen PV3649) for 2 h at 25° C. Reactions were stopped by addition of 10 μL TR-FRET Dilution Buffer (Invitrogen PV3574) with 30 mM EDTA and 1.5 nM LanthaScreen Tb-CREB pSer133 antibody (Invitrogen PV3566). After 30 min. incubation at room temperature, plates were read on a PHERAstar FS plate reader (BMG Labtech).

C[C@@H]1C[C@H](N)CN(c2ccncc2NC(=O)c2c(N)oc3cc(-c4cnn(C)c4)cnc23)C1 [Example 110, 2-Amino-N-{4-[(3S,5R)-3-amino-5-methylpiperidin-1-yl]pyridin-3-yl}-6-(1-methyl-1H-pyrazol-4-yl)furo[3,2-b]pyridine-3-carboxamide]
IC50 (Pim-3): ≤ 0.01 µM | IC50 (Pim-1): ≤ 0.01 µM | IC50 (Pim-2): 0.01 to 0.1 µM

Nc1oc2cc(C(F)(F)F)cnc2c1C(=O)Nc1cnccc1N1C[C@@H](N)[C@H](O)[C@@H](C2CC2)C1 [Example 129, 2-Amino-N-(4-((3R,4R,5S)-3-amino-5-cyclopropyl-4-hydroxypiperidin-1-yl)pyridin-3-yl)-6-(trifluoromethyl)furo[3,2-b]pyridine-3-carboxamide]
IC50 (Pim-3): ≤ 0.01 µM | IC50 (Pim-1): ≤ 0.01 µM | IC50 (Pim-2): 0.01 to 0.1 µM

CCOc1ccnc2c(C(=O)Nc3cnccc3N3CCC[C@H](N)C3)c(N)sc12 [Example 20, 2-Amino-N-{4-[(3S)-3-aminopiperidin-1-yl]pyridin-3-yl}-7-ethoxythieno[3,2-b]pyridine-3-carboxamide]
IC50 (Pim-3): ≤ 0.01 µM | IC50 (Pim-1): ≤ 0.01 µM | IC50 (Pim-2): 0.1 to 1 µM

Nc1oc2cccnc2c1C(=O)Nc1cnccc1N1C[C@@H](N)[C@H](O)[C@@H](C(F)(F)F)C1 (single isomer, unassigned) [Example 87 (Diastereoisomer 2)]
IC50 (Pim-3): ≤ 0.01 µM | IC50 (Pim-1): ≤ 0.01 µM | IC50 (Pim-2): 0.01 to 0.1 µM

CCCc1cnc2c(C(=O)Nc3cnccc3N3C[C@@H](N)C[C@@H](C(F)(F)F)C3)c(N)oc2c1 [Example 69, 2-Amino-N-{4-[(3S,5R)-3-amino-5-(trifluoromethyl)piperidin-1-yl]pyridin-3-yl}-6-propylfuro[3,2-b]pyridine-3-carboxamide]
IC50 (Pim-3): ≤ 0.01 µM | IC50 (Pim-1): ≤ 0.01 µM | IC50 (Pim-2): ≤ 0.01 µM

Cc1cnc2c(C(=O)Nc3cnccc3N3C[C@H](C)C[C@H](N)C3)c(N)oc2c1 [Example 116, 2-Amino-N-{4-[(3S,5R)-3-amino-5-methylpiperidin-1-yl]pyridin-3-yl}-6-methylfuro[3,2-b]pyridine-3-carboxamide]
IC50 (Pim-3): ≤ 0.01 µM | IC50 (Pim-1): ≤ 0.01 µM | IC50 (Pim-2): 0.01 to 0.1 µM

Cn1ncc(NC(=O)c2c(N)sc3cccnc23)c1N1CCC[C@H](N)C1 [Example 2, 2-Amino-N-{5-[(3S)-3-aminopiperidin-1-yl]-1-methyl-1H-pyrazol-4-yl}thieno[3,2-b]pyridine-3-carboxamide]
IC50 (Pim-3): ≤ 0.01 µM | IC50 (Pim-1): ≤ 0.01 µM | IC50 (Pim-2): 0.1 to 1 µM

C[C@@H]1C[C@H](N)CN(c2ccncc2NC(=O)c2c(N)oc3cc(F)cnc23)C1 [Example 71, 2-Amino-N-{4-[(3S,5R)-3-amino-5-methyl-piperidin-1-yl]pyridin-3-yl}-6-fluorofuro[3,2-b]pyridine-3-carboxamide]
IC50 (Pim-3): ≤ 0.01 µM | IC50 (Pim-1): ≤ 0.01 µM | IC50 (Pim-2): 0.01 to 0.1 µM

Nc1oc2cc(Br)cnc2c1C(=O)Nc1cnccc1N1CCC[C@H](N)C1 [Example 54, 2-amino-N-{4-[(3S)-3-aminopiperidin-1-yl]pyridin-3-yl}-6-bromo-furo[3,2-b]pyridine-3-carboxamide]
IC50 (Pim-3): ≤ 0.01 µM | IC50 (Pim-1): ≤ 0.01 µM | IC50 (Pim-2): 0.01 to 0.1 µM

CN1CC(c2cnc3c(C(=O)Nc4cnccc4N4CCC[C@H](N)C4)c(N)sc3c2)C1 [Example 31, 2-Amino-N-{4-[(3S)-3-aminopiperidin-1-yl]pyridin-3-yl}-6-(1-methylazetidin-3-yl)thieno[3,2-b]pyridine-3-carboxamide]
IC50 (Pim-3): ≤ 0.01 µM | IC50 (Pim-1): ≤ 0.01 µM | IC50 (Pim-2): 0.1 to 1 µM

CCc1cnc2c(C(=O)Nc3cnccc3N3CCC[C@H](N)C3)c(N)oc2c1 [Example 47, 2-Amino-N-{4-[(3S)-3-aminopiperidin-1-yl]pyridin-3-yl}-6-ethylfuro[3,2-b]pyridine-3-carboxamide]
IC50 (Pim-3): ≤ 0.01 µM | IC50 (Pim-1): ≤ 0.01 µM | IC50 (Pim-2): 0.01 to 0.1 µM
